{"source": "patent US5770623A", "about": "“Argine antagonists for inhibition of systemic hypotension associated with nitric oxide production or endothelial derived relaxing factor” (Board of Regents, The University of Texas System, priority 1995, dated 1998)", "key": {"[1]": {"test_system": "vascular EDRF/NO synthesis", "conditions": "Sakuma et al., cited from earlier work"}, "control dogs": {"test_system": "control dogs", "test": "L-NMA in control dogs (Example 4)", "type": "in vivo, dog", "conditions": "for increase in blood pressure (SAP) by L-NMA: control dogs, L-NMA 20 mg/kg, n=4", "method": "(§1) Animals: Studies were carried out on 12 conditioned mongrel dogs (9 males and 3 females) weighing 22-32 kg (avg=25.3 kg). Animal care was in accordance with the recommendations of the American Association for Accreditation of Laboratory Animal Care, and met all standards prescribed by the Guide for the Care and Use of Laboratory Animals (Guide for the Care and Use of Laboratory Animals (1978) Dept. of Health, Education and Welfare, Washington, D.C. (Publ. No. 78-23). Animal protocols were approved by The University of Texas Animal Welfare Committee. The dogs were fasted overnight prior to the day of experimentation. They were anesthetized with sodium pentobarbital (25 mg/kg I.v.). Dogs were then endotracheally intubated and ventilated with a piston-driven respirator (Harvard instruments) using room air at a tidal volume of 20 ml/kg and at a rate of 10 to 12 breaths per minute, adjusted to achieve a normal arterial pH and pCO2 (Instrumentation Laboratories 1L13012 pH/Blood Gas Analyzer). Catheters were placed percutaneously into the femoral and pulmonary arteries; In the latter, a flow-directed thermal-dilation catheter was used (Abbott Critical Care Systems).\n(§2) Physiologic measurements: Mean SAP and heart rate were continuously monitored (Parametron 7048 Monitoring System, Roche) and stored on a magnetic disk using an analog-to-digital converter (Scientific Solutions, Inc.). Cardiac output (CO) was determined as the mean of six measurements by thermal-dilution. Systemic vascular resistance was calculated as (SAP X80)/CO and expressed as […].\n(§3) Protocol: After the blood pressure and heart rate stabilized, endotoxin (40 ug/kg, in 10 ml of phosphate-buffered saline (PBS), pH 7.4) was infused i.v. over 2 minutes. This dose of endotoxin typically induces severe and often lethal cardiovascular collapse in the dog. Blood pressure was monitored, and when either SAP fell below 60 mmHg or a stable nadir in systemic arterial pressure (SAP) was maintained for 10 minutes, L-NMA was administered (20 mg/kg in 5 ml of PBS i.v. over 1 min.). In most experiments, L-arginine (400 mg/kg in 20 mi PBS) was administered ten minutes later by i.v. infusion over 2 minutes. In control experiments, dogs without prior exposure to endotoxin received L-NMA alone. To simulate the hypotension observed in dogs receiving endotoxin, one group of dogs received a continuous i.v. infusion of nitroglycerin (2 mg/ml) at a rate adjusted to maintain the SAP at 60-70 mm Hg. Nitroglycerin-treated dogs then received L-NMA (20 mg/kg) and 20 minutes later L-arginine was administered […]."}, "[2]": {"test_system": "murine endothelial cells exposed to Gamma-Interferon and TNF (nitric oxide production)", "test": "Inhibition of nitrite production by MBEC exposed to IFN (100 U/ml) and TNF (500 U/ml)", "type": "cell-based", "conditions": "for IC50: Mus musculus, Endothelial cell", "method": "Endothelial cells--MBEC's were isolated from murine brain microvessels and cultured on gelatin-coated tissue culture dishes in DME/F12 media supplemented with 2% PPPHS, 5% FBS (Hyolone), 50 μg/ml ECGF (Biomed Tech), and 10 U/ml heparin (Sigma) as previously described (Belloni et al. 1989). The endothelial derivation of MBEC's was determined by the presence of a non-thrombogenic surface to platelets and immunofluorescent staining for Factor VIII related antigen. MBEC's were used between passage 6-9 for all experiments.\nNitrite Assay--MBE cells were cultured on gelatin-coated well plates (Corning) in 100 μl of culture medium and treated with cytokines at 3 days post-confluence. After 48 hours, nitrite production was determined by a colorimetric assay. […] All treatments were performed in triplicate and data presented as the mean value±standard deviation. […]\nproduction by murine endothelial cells exposed to GammaInterferon (100\nU/ml) and TNF (500 U/ml) in vitro."}, "[3]": {"test_system": "isolated guinea pig heart", "test": "Histamine-induced nitrite release and coronary flow in isolated perfused guinea pig heart", "conditions": "for effect on coronary flow (vasodilation): histamine-elicited; for effect on EDRF/NO (nitrite) release: histamine-induced, FIG. 13", "method": "Histamine was administered as a rapid bolus injection into the aorta and net nitrite release during the subsequent 2.5 minutes was determined."}, "[4]": {"test_system": "nitroglycerin infused dogs", "test": "Nitroglycerin-induced hypotension in dogs (Example 2)", "type": "in vivo, dog", "method": "Four conditioned mongrel dogs, 2 males and 2 females, weighing 28 to 30 kgs, were studied. Care of the animals were in accordance with the recommendation of the American Association for Accreditation of Laboratory Animals [DHEW(DHHS) publication no. (NIH) 78-23, revised, 1978]. On the day of the experiment, the dogs were fasted overnight. They were anesthetized with phenobarbital (10 mg/kg). They were then intubated orally with a #10 fr. endotracheal tube and ventilated with a Harvard pump ventilator at a rate of 12 breaths per minute and a tidal volume of 15 ml/kg. An arterial line was percutaneously placed in the femoral artery on the day of the experiment.\nMean (electronic) and phasic systemic arterial pressures (SAP) were continuously recorded on a Hewlett-Packard recording system (model 7758B) using strain gauge manometers (Hewlett-Packard model 1290A) which were connected to the arterial line. Heart rate (HR) was determined from an EKG tracing and continuously recorded on the Hewlett-Packard recording system. Oxyhemoglobin saturation (SaO2) was obtained using a pulse oximeter (BIOX 111, Boulder, Colo.). continuous time-series records of SAP, HR, and SaO2 were obtained using a Lab Master analog-to-digital convertor (16 channel, 12 bit, 30 kHz; Scientific Solutions, Inc.) sampling at 55 Hz and storing the 6 sec averages on a magnetic disk.\nThis was followed by a compensatory decrease in the HR with a return of the BP to baseline. The NMMA-induced bradycardia lasted 31 minutes. This response was not observed in animals which had been previously treated with TNF. In a subsequent experiment (FIG. 7a) the hypotensive response to TNF was especially severe, with a decrease in BP from 125 mm to 36 mmHg. […] This was associated with a decrease in the HR from 101 to 92 beats/minute. […] In a second control study nitroglycerin was infused at a rate of 28 μg/kg/minute, IV, to lower the blood pressure to the same level as that observed with tumor necrosis factor (FIG. 7c)."}, "endotoxin-treated dogs": {"test_system": "endotoxin-treated dogs", "type": "in vivo, dog", "parameters": "blood pressure after L-arginine / change in SAP after L-arginine: dose or concentration left out as unconfirmed", "conditions": "for Cardiac Output / Heart Rate / Systemic Arterial Pressure / Systemic Vascular Resistance: Table 1, Study 1: Endotoxin-treated (n = 4)", "method": "as §1, §2, §3"}}, "note": "“Also recorded” adds a separate entry of the source. Read-outs that look alike come from different tables or passages of the source.", "data": [{"smiles": "N=C(N)NCCC[C@H](N)C(=O)O", "note": "[L-arginine, reference compound]", "values": [{"measurement": "restoration of EDRF/NO synthesis", "setting": "[1]; excess L-arginine after L-NMA", "value": "restored"}, {"measurement": "effect of L-arginine on pressor effect of L-NMA", "setting": "control dogs; 400 mg/kg", "value": "fully reversed the pressor effect of L-NMA"}, {"measurement": "reversal of NMMA inhibition of nitrite production", "setting": "[2]; 8 mM L-arginine vs 1 mM NMMA", "value": "completely reversing the effects of 1 mM NMMA"}, {"measurement": "nitrite concentration upon adding L-arginine back to arginine-free medium", "setting": "[2]; MBEC exposed to TNF and IFN", "value": "increased in a dose dependent manner"}, {"measurement": "effect on coronary flow (vasodilation)", "setting": "[3]", "value": "restored"}, {"measurement": "effect on EDRF/NO (nitrite) release", "setting": "[3]", "value": "restoration"}, {"measurement": "effect of L-arginine after NMMA", "setting": "[4]; nitroglycerin infused dogs", "value": "reversed this modest effect"}, {"measurement": "effect of L-arginine on L-NMA effect", "setting": "endotoxin-treated dogs; 400 mg/kg L-arginine", "value": "reversed the effect of L-NMA and restored the endotoxin-induced hypotension"}, {"measurement": "blood pressure after L-arginine", "setting": "endotoxin-treated dogs; 2 hours after L-NMA dosing, decline", "value": "< 45", "unit": "mm Hg"}, {"measurement": "blood pressure after L-arginine", "setting": "endotoxin-treated dogs; FIG. 24, L-arginine", "value": 43, "unit": "mm Hg"}, {"measurement": "change in SAP after L-arginine", "setting": "endotoxin-treated dogs; FIG. 24, L-arginine", "value": -77, "unit": "mm Hg"}, {"measurement": "Cardiac Output", "setting": "endotoxin-treated dogs", "value": "2.31 ± 0.43", "unit": "L/min"}, {"measurement": "Heart Rate", "setting": "endotoxin-treated dogs", "value": "116.7 ± 18.8", "unit": "beats/min"}, {"measurement": "Systemic Arterial Pressure", "setting": "endotoxin-treated dogs", "value": "52.7 ± 8.8", "unit": "mmHg"}, {"measurement": "Systemic Vascular Resistance", "setting": "endotoxin-treated dogs", "value": "1851 ± 171", "unit": "dynes-sec/cm^5"}]}, {"smiles": "CNC(=N)NCCC[C@H](N)C(=O)O", "note": "[NMMA, N^G -methyl-L-arginine]", "values": [{"measurement": "inhibition of vascular EDRF/NO synthesis", "setting": "[1]; induced by acetylcholine and histamine", "value": "inhibit vascular EDRF/NO synthesis"}, {"measurement": "Cardiac Output", "setting": "control dogs; Table 2, control dogs (n = 4)", "value": "2.12 ± 0.26", "unit": "L/min"}, {"measurement": "Heart Rate", "setting": "control dogs; Table 2, control dogs (n = 4)", "value": "82.5 ± 6.1", "unit": "beats/min"}, {"measurement": "Systemic Arterial Pressure", "setting": "control dogs; Table 2, control dogs (n = 4)", "value": "153.8 ± 11.4", "unit": "mmHg"}, {"measurement": "Systemic Vascular Resistance", "setting": "control dogs; Table 2, control dogs (n = 4)", "value": "5967 ± 523", "unit": "dynes-sec/cm^5"}, {"measurement": "increase in blood pressure (SAP) by L-NMA", "setting": "control dogs; listed as L-NMA", "value": "24.8±2.7", "unit": "mmHg"}, {"measurement": "increase in blood pressure (SAP) by L-NMA", "setting": "control dogs; listed as N^G -methyl-L-arginine", "value": "24.8±4.7", "unit": "mmHg"}, {"measurement": "increase in SVR", "setting": "control dogs; other two control dogs", "value": "about 1400 dynes-sec/cm^5"}, {"measurement": "decrease in cardiac output", "setting": "control dogs; two of four control dogs", "value": "> 1.5", "unit": "L/min"}, {"measurement": "increase in SVR", "setting": "control dogs; two of four control dogs with marked decrease of cardiac output", "value": "≥ 3500", "unit": "dynes-sec/cm^5"}, {"measurement": "concentration giving maximal inhibition of nitrite production", "setting": "[2]; MBEC exposed to TNF and IFN", "value": 1, "unit": "mM"}, {"measurement": "effect of NMMA on nitrite production", "setting": "[2]; MBEC exposed to TNF and IFN", "value": "inhibited"}, {"measurement": "IC50", "setting": "[2]; 48 h, read-out: ED50% (effective dose that inhibited 50% of the nitrite production), murine endothelial cells, Gamma-Interferon (100 U/ml) and TNF (500 U/ml), in vitro", "value": 337, "unit": "µM"}, {"measurement": "IC50", "setting": "[2]; read-out: E.D. 50% for inhibition of nitrite production, MBEC exposed to TNF and IFN", "value": 330, "unit": "µM"}, {"measurement": "effect on coronary flow (vasodilation)", "setting": "[3]", "value": "attenuated"}, {"measurement": "effect on EDRF/NO (nitrite) release", "setting": "[3]", "value": "inhibition"}, {"measurement": "effect on EDRF/NO (nitrite) release", "setting": "[3]; listed as L-NMA", "value": "inhibits EDRF/NO release"}, {"measurement": "blood pressure increase by NMMA", "setting": "[4]; nitroglycerin 28 μg/kg/minute IV", "value": 14, "unit": "mm"}, {"measurement": "antagonism of nitroglycerin hypotension", "setting": "[4]; similar level of hypotension", "value": "not antagonized"}, {"measurement": "anti-hypotensive effect in endotoxemic dog", "setting": "endotoxin-treated dogs; 20 mg/kg L-NMA", "value": "rapid and strong anti-hypotensive effect; also recorded: restores blood pressure to normal or near normal values"}, {"measurement": "increase in SAP by L-NMA", "setting": "endotoxin-treated dogs; FIG. 24, 20 mg/kg, within 10 min", "value": 73, "unit": "mm Hg"}, {"measurement": "duration of maintained blood pressure, first dose", "setting": "endotoxin-treated dogs; FIG. 24, first dose of L-NMA", "value": 48, "unit": "min"}, {"measurement": "SAP maintained after second dose", "setting": "endotoxin-treated dogs; FIG. 24, for 2 hrs", "value": "greater than 100 mm Hg"}, {"measurement": "time to normalization / reversal of hypotension", "setting": "endotoxin-treated dogs; L-NMA 20 mg/kg i.v.", "value": "≤ 1.5", "unit": "min"}, {"measurement": "increase in SVR by L-NMA", "setting": "endotoxin-treated dogs; L-NMA, endotoxin-treated", "value": "2060±338", "unit": "dynes-sec/cm^5"}, {"measurement": "Cardiac Output", "setting": "endotoxin-treated dogs", "value": "2.03 ± 0.32", "unit": "L/min"}, {"measurement": "Heart Rate", "setting": "endotoxin-treated dogs", "value": "123.3 ± 4.8", "unit": "beats/min"}, {"measurement": "Systemic Arterial Pressure", "setting": "endotoxin-treated dogs", "value": "107 ± 9.6", "unit": "mmHg"}, {"measurement": "Systemic Vascular Resistance", "setting": "endotoxin-treated dogs", "value": "4462 ± 552", "unit": "dynes-sec/cm^5"}, {"measurement": "duration of normal blood pressure with additional dose", "setting": "endotoxin-treated dogs; additional dose of L-NMA 20 mg/kg", "value": "at least 2 hours"}, {"measurement": "increase in SAP by L-NMA", "setting": "endotoxin-treated dogs; endotoxemic dogs, L-NMA 20 mg/kg, n=4", "value": "47.8±6.8", "unit": "mmHg"}, {"measurement": "HR and CO after L-NMA", "setting": "endotoxin-treated dogs; endotoxin-treated", "value": "unchanged"}, {"measurement": "pressor effect of doses greater than 20 mg/kg", "setting": "endotoxin-treated dogs; limited dose response studies, versus 20 mg/kg", "value": "do not have a significantly greater pressor effect"}, {"measurement": "duration of normal blood pressure after single dose", "setting": "endotoxin-treated dogs; single i.v. dose L-NMA 20 mg/kg", "value": "30 to 60", "unit": "min"}]}]}
